From US8063191B2, “Polynucleotides encoding for fusion proteins with natriuresis activity” (Mayo Foundation for Medical Education and Research, priority 2005, dated 2011)

System: normal dogs that were anesthetized
Assay: Hemodynamic and renal properties of intravenous LA-ANP versus ANP infusion in anesthetized normal dogs
Type: in vivo, dog
Conditions: for urinary sodium excretion: baseline 47.0±18.9; for distal fractional sodium reabsorption: baseline 97.2±0.9
Experimental: Studies comparing LA-ANP to ANP were performed in normal dogs that were anesthetized. Equimolar concentrations of a low dose (2 pmol/kg/min) of LA-ANP and ANP were infused intravenously, where ANP was administered at a threshold concentration required to activate cyclic guanosine monophosphate. Equimolar concentrations of a high dose of LA-ANP and ANP (33 pmol/kg/min.) were also infused intravenously. Infusion of ANP or LA-ANP for 45 minutes was performed following a 30 minute baseline period, which was preceded by a 60 minute equilibrium period. Infusion was followed by a 30 minute wash-out period and three recovery (Rec) periods of 30 minutes each. Hemodynamic and renal parameters were measured at baseline (BL), during 45 minutes of infusion, and 120 minutes post-infusion.

[1] = low dose 2 pmol/kg/min i.v., at 120 minutes post-infusion
[2] = low dose 2 pmol/kg/min i.v., during infusion

Row | Molecule | natriuresis (in words) [1] | glomerular filtration rate (in words) [2] | mean arterial pressure (in words) [2] | natriuresis (in words) [2] | diuresis (in words) (low dose 2 pmol/kg/min i.v., with infusion) | diuretic effect as compared to ANP (equimolar i.v. infusion) | natriuretic effect as compared to ANP (equimolar i.v. infusion) | glomerular filtration rate, compared to high dose of ANP (high dose 33 pmol/kg/min i.v.) | mean arterial pressure, compared to high dose of ANP (high dose 33 pmol/kg/min i.v.) | urinary sodium excretion (low dose 2 pmol/kg/min i.v., at 120 minutes post-infusion, p<0.01) [μEq/min.] | distal fractional sodium reabsorption [1] [%] | urinary sodium excretion (low dose 2 pmol/kg/min i.v., during 45 min infusion, p<0.01) [μEq/min.] | renal blood flow, compared to low dose ANP [2] | diuresis (urine flow) (low dose 2 pmol/kg/min i.v., during infusion, baseline 0.34±0.08, p<0.01) [mL/min] | distal fractional sodium reabsorption [2] [%] | distal fractional sodium reabsorption, overall, compared to low dose of ANP (low dose 2 pmol/kg/min i.v., p<0.01)
1 | CC[C@H](C)[C@@H]1NC(=O)[C@H](CCCNC(=N)N)NC(=O)[C@H](CC(=O)O)NC(=O)[C@H](CCSC)NC(=O)[C@H](CCCNC(=N)N)NC(=O)CNC(=O)CNC(=O)[C@H](Cc2ccccc2)NC(=O)[C@@H](NC(=O)[C@H](CO)NC(=O)[C@H](CO)NC(=O)[C@H](CCCNC(=N)N)NC(=O)[C@H](CCCNC(=N)N)NC(=O)[C@H](CC(C)C)NC(=O)[C@@H](N)CO)CSSC[C@@H](C(=O)N[C@@H](CC(N)=O)C(=O)N[C@@H](CO)C(=O)N[C@@H](Cc2ccccc2)C(=O)N[C@@H](CCCNC(=N)N)C(=O)N[C@@H](Cc2ccc(O)cc2)C(=O)O)NC(=O)CNC(=O)[C@H](CC(C)C)NC(=O)CNC(=O)[C@H](CO)NC(=O)[C@H](CCC(N)=O)NC(=O)[C@H](C)NC(=O)CNC1=O [ANP, reference compound] | not increased | No change | No change | not increased | no significant change |  |  |  |  |  |  |  |  |  |  | 
2 | SLRRSSCFGGRMDRIGAQSGLGCNSFRYRITA-REDKQGWA (SLRRSSCFGGRMDRIGAQSGLGCNSFRYRITAREDKQGWA; listed as Homo sapiens) [LA-ANP] |  | No change | No change |  |  | greater diuretic effect | greater natriuretic effect | increased | decreased | 119.2±34.2 | 95.3±0.9 | 88.4±17.5 | increased | 1.08 ± 0.23 | 96.0±0.6 | significantly decreased
